{
  "source": "patent US7399770B2",
  "about": "“Thieno-imino acid derivatives for use as matrix metalloproteinase inhibitors” (SANOFI-AVENTIS Deutschland GmbH, priority 2004, dated 2008)",
  "assay_type_in_all_cases": "biochemical",
  "details_in_all_cases": "fluorogenic substrate, pH 7.5",
  "key": {"[1]": {"target": "T1, catalytic domain of human gelatinase-B (MMP-9) (Homo sapiens, UniProt P14780)", "T1 construct": "Determining the enzymatic activity of the catalytic domain of human gelatinase-B (MMP-9); purchased Roche, Mannheim 1 758 896", "T1 sequence (P14780 107-444 limits assumed)": "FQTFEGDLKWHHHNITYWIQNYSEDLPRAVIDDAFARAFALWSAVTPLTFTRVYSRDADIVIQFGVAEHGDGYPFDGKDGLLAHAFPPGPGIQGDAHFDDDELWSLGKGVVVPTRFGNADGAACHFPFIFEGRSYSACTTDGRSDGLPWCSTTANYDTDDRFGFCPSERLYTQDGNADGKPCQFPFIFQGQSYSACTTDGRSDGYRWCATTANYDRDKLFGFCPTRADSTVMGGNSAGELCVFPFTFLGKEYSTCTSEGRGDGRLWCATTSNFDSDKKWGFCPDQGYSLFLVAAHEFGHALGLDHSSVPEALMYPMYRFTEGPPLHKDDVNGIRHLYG", "assay": "enzymatic activity of the catalytic domain of human gelatinase-B (MMP-9)", "protocol": "Determining the enzymatic activity of the catalytic domain of human gelatinase-B (MMP-9).\n(§1) Activation of the Proenzyme:\n(§2) 2parts by volume of proenzyme were incubated, at 37° C. for 4 hours, with 1 part by volume of APMA solution. The APMA solution was prepared from a 10 mmol/l p-aminophenylmercuric acetate solution in 0.1 mmol/l NaOH by diluting with 3 parts by volume of Tris/HCl buffer, pH 7.5 (see below). The pH was adjusted to between 7.0 and 7.5 by adding 1 mmol/l HCl. After the enzyme had been activated, it was diluted with the Tris/HCl buffer down to a concentration of 4.2 mU/ml.\n(§3) In order to measure the enzyme activity, 10 μl of enzyme solution were incubated, for 15 minutes, with 10 μl of a 3% (v/v) buffered solution of dimethyl sulfoxide (reaction 1). […]\nBoth in the case of reaction 1 and in the case of reaction 2, the enzyme reaction was monitored by fluorescence spectroscopy (328 nm (extinction)/393 nm (emission)) after 10 μl of a 3% (v/v) aqueous solution of dimethyl sulfoxide containing 0.15 mmol of the substrate/l had been added.\n(§4) The enzyme activity was expressed as increase in extinction/minute.\n(§5) The inhibitor effect was calculated as a percentage inhibition in accordance with the following formula: % inhibition=100−[(increase in extinction/minute in reaction 2)/(increase in extinction/minute in reaction 1)×100]. […]"}, "[2]": {"target": "T2, catalytic domain of human neutrophil collagenase (MMP-8) (Homo sapiens, UniProt P22894)", "T2 construct": "catalytic domains of human stromelysin (MMP-3) and neutrophil collagenase (MMP-8); made in house", "T2 sequence (P22894 100-262 limits assumed)": "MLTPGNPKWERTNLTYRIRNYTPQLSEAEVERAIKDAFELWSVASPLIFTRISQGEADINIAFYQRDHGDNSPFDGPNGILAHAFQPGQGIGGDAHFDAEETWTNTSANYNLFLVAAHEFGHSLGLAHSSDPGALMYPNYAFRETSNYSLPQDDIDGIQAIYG", "assay": "enzymatic activity of the catalytic domain of human neutrophil collagenase (MMP-8)", "protocol": "(§6) Preparation, and determination of the enzymatic activity, of the catalytic domains of human stromelysin (MMP-3) and neutrophil collagenase (MMP-8).\n(§7) The two enzymes, i.e. stromelysin (MMP-3) and neutrophil collagenase (MMP-8), were prepared in accordance with Ye et al. (Biochemistry; 31 (1992) pages 11231-11235). In order to measure the enzyme activity, or the enzyme inhibitor effect, 10 μl of enzyme solution were incubated, for 15 minutes, with 10 μl of a 3% (v/v) buffered solution of dimethyl sulfoxide which contained the enzyme inhibitor, where appropriate. After 10 μl of a 3% (v/v) aqueous solution of dimethyl sulfoxide containing 1 mmol of the substrate/l had been added, the enzyme reaction was monitored by fluorescence spectroscopy (328 nm (ex)/393 nm (em)).\n(§8) The enzyme activity is expressed as increase in extinction/minute. The IC50 values listed in table 2 were determined as being those inhibitor concentrations which in each case led to a 50% inhibition of the enzyme.\n(§9) The buffer solution contained 0.05% Brij (Sigma, Deisenhofen, Germany) and also 0.1 mol of Tris/HCl/l, 0.1 mol of NaCl/l, 0.01 mol of CaCl2/l and 0.1 mol of piperazine-N,N′-bis[2-ethanesulfonic acid]/l (pH=7.5). […]"}, "[3]": {"target": "T3, catalytic domain of human gelatinase-A (MMP-2) (Homo sapiens, UniProt P08253)", "T3 construct": "Determining the enzymatic activity of the catalytic domain of human gelatinase-A (MMP-2); purchased INVITEK, Berlin 30 100 602", "T3 sequence (P08253 110-465 limits assumed)": "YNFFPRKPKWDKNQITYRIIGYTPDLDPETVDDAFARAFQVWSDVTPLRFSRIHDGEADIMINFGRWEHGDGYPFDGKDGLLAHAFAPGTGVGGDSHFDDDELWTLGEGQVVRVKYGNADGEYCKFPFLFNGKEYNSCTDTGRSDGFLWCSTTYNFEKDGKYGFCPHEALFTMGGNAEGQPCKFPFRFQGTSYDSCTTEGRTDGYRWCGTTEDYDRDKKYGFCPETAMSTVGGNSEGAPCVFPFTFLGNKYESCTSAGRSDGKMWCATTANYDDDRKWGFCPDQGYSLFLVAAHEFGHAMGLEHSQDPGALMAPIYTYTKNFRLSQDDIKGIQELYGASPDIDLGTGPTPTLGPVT", "assay": "enzymatic activity of the catalytic domain of human gelatinase-A (MMP-2)", "protocol": "Determining the enzymatic activity of the catalytic domain of human gelatinase-A (MMP-2).\nas §1\nas §2, with “2 parts” for “2parts”, “0.5 hour,” for “4 hours,”, “buffer” for “buffer,”, “mmol HCl/l.” for “mmol/l HCl.”, “0.83 μg/ml. In order to measure the enzyme activity, 10 μl of enzyme solution were incubated, for 15 minutes, with 10 μl of a 3% (v/v) buffered solution of dimethyl sulfoxide (reaction 1). […]” for “4.2 mU/ml.”\nBoth in the case of reaction 1 and in the case of reaction 2, the enzyme reaction was monitored by fluorescence spectroscopy (328 nm (extinction)/393 nm (emission)) after 10 μl of a 3% (v/v) aqueous solution of dimethyl sulfoxide containing 0.3 mmol of the substrate/l had been added.\nas §4, §5"}, "[4]": {"target": "T4, catalytic domain of human stromelysin (MMP-3) (Homo sapiens, UniProt P08254)", "T4 construct": "catalytic domains of human stromelysin (MMP-3) and neutrophil collagenase (MMP-8); made in house", "T4 sequence (P08254 100-272 limits assumed)": "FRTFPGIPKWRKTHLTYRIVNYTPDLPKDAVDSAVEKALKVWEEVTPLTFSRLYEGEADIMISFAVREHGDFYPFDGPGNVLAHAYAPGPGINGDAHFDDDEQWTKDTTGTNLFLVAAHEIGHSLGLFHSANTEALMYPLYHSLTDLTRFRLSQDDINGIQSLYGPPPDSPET", "assay": "enzymatic activity of the catalytic domain of human stromelysin (MMP-3)", "protocol": "as §6, §7, §8, §9"}, "[5]": {"target": "T5, catalytic domain of human collagenase-3 (MMP-13) (Homo sapiens, UniProt P45452)", "T5 construct": "Determining the enzymatic activity of the catalytic domain of human collagenase-3 (MMP-13); purchased INVITEK, Berlin 30 100 803", "assay": "enzymatic activity of the catalytic domain of human collagenase-3 (MMP-13)", "protocol": "Determining the enzymatic activity of the catalytic domain of human collagenase-3 (MMP-13).\nas §1\n(§10) 2 parts by volume of proenzyme were incubated, at 37° C. for 1.5 hours, with 1 part by volume of APMA solution. The APMA solution was prepared from a 10 mmol/l solution of p-aminophenylmercuric acetate in 0.1 mmol/l NaOH by diluting with 3 parts by volume of Tris/HCl buffer pH 7.5 (see below). The pH was adjusted to between 7.0 and 7.5 by adding 1 mmol/l HCl. After the enzyme had been activated, it was diluted with the Tris/HCl buffer down to a concentration of 1.67 μg/ml.\nas §3\nBoth in the case of reaction 1 and in the case of reaction 2, the enzyme reaction was monitored by fluorescence spectroscopy (328 nm (extinction)/393 nm (emission)) after 10 μl of a 3% (v/v) aqueous solution of dimethyl sulfoxide containing 0.075 mmol of the substrate/l had been added. […]\nas §5"}, "[6]": {"target": "T6, catalytic domain of human collagenase-1 (MMP-1) (Homo sapiens, UniProt P03956)", "T6 construct": "Determining the enzymatic activity of the catalytic domain of human collagenase-1 (MMP-1); purchased Biocol, Potsdam MMP1", "T6 sequence (P03956 100-269 limits assumed)": "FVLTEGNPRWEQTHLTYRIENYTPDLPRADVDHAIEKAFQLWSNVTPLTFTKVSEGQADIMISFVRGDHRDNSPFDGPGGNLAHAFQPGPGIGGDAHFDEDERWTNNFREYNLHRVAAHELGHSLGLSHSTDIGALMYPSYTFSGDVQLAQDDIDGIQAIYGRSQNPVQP", "assay": "enzymatic activity of the catalytic domain of human collagenase-1 (MMP-1)", "protocol": "Determining the enzymatic activity of the catalytic domain of human collagenase-1 (MMP-1).\nas §1\nas §10, with “are” for “were”, “1 hour,” for “1.5 hours,”, “is” for “was”, “has” for “had”, “2.5” for “1.67”, “μg/ml. In order to measure the enzyme activity, 10 μl of enzyme solution are incubated, for 15 minutes, with 10 μl of a 3% (v/v) buffered solution of dimethyl sulfoxide (reaction 1). […]” for “μg/ml.”\nBoth in the case of reaction 1 and in the case of reaction 2, the enzyme reaction is monitored by fluorescence spectroscopy (328 nm (extinction)/393 nm (emission)) after 10 μl of a 3% (v/v) aqueous solution of dimethyl sulfoxide which contains 0.3 mmol of the substrate/l has been added. The enzyme activity is expressed as increase in extinction/minute. The inhibitor effect is calculated as percentage inhibition in accordance with the following formula: % inhibition=100−[(increase in extinction/minute in reaction 2)/(increase in extinction/minute in reaction 1)×100]. […]"}},
  "data": [
    {"molecule": "O=C(NO)C1c2c(sc3ccccc23)C(O)CN1S(=O)(=O)c1ccc(-c2ccc(Cl)cc2)cc1", "note": "(stereo not drawn) [Example 1, 2-(4′-Chlorobiphenyl-4-sulfonyl)-4-hydroxy-1,2,3,4-tetrahydrobenzo[4,5]thieno[3,2-c]pyridine-1-carboxylic acid hydroxyamide]", "values": [
      {"measurement": "IC50", "setting": "[1]", "value": 3.5, "unit": "nM"},
      {"measurement": "IC50", "setting": "[2]", "value": 13, "unit": "nM"},
      {"measurement": "IC50", "setting": "[3]", "value": 2.5, "unit": "nM"},
      {"measurement": "IC50", "setting": "[4]", "value": 70, "unit": "nM"},
      {"measurement": "IC50", "setting": "[5]", "value": 6.3, "unit": "nM"},
      {"measurement": "IC50", "setting": "[6]", "value": 700, "unit": "nM"}
    ]}
  ]
}
